Measured values as given in US11806342B2, “Diiodohydroxyquinoline for the treatment of clostridium difficile infection” (Purdue Research Foundation, priority 2019, dated 2023).
In brackets after ≈: the same amount, converted by molar mass.

How the values were obtained:
[1] = tested on: C. difficile ATCC BAA-1870; assay: Checkerboard assay, DIHQ with metronidazole or vancomycin; type: cell-based, Clostridium difficile
Procedure: (§1) The fractional inhibitory concentration index (ΣFIC) was calculated for each interaction. Interactions where the ΣFIC index was ≤0.5 were categorized as synergistic (SYN).

C. difficile I9 = assay: as above; type: cell-based, Clostridium difficile
Procedure: as §1

C. difficile ATCC 43255 [2] = assay: as above; type: cell-based, Clostridium difficile
Procedure: as §1

[3] = tested on: Bifidobacterium adolescentis HM-633; assay: MIC against normal gut microflora, broth microdilution; type: cell-based; conditions: Bifidobacterium adolescentis, HM633
Procedure: (§2) In vitro antimicrobial evaluation of diiodohydroxyquinoline against normal microflora. The broth microdilution assay was utilized to determine the MICs of DIHQ and control antibiotics against commensal organisms that compose he human gut microflora, as described elsewhere. A bacterial solution equivalent to 0.5 McFarland standard was prepared and diluted in BHIS broth (for Bifidobacterium and Bacteroides) or in MRS broth (for Lactobacillus) to achieve a bacterial concentration of about 5×10^5 CFU/mL. Then, drugs were added and serially diluted along the plates.

[4] = tested on: Bacteroides fragilis HM-714; assay: as above; type: cell-based; conditions: Bacteroides fragilis, HM714
Procedure: as §2

[5] = tested on: Bifidobacterium breve HM-1120; assay: as above; type: cell-based; conditions: Bifidobacterium breve, HM1120
Procedure: as §2

[6] = tested on: Bifidobacterium longum HM-845; assay: as above; type: cell-based; conditions: Bifidobacterium longum, HM845
Procedure: as §2

Bacteroides dorei HM-718 = assay: as above; type: cell-based; conditions: Phocaeicola dorei, HM718
Procedure: as §2

[7] = tested on: Bacteroides fragilis HM-711; assay: as above; type: cell-based; conditions: Bacteroides fragilis, HM711
Procedure: as §2

[8] = tested on: Bacteroides fragilis HM-709; assay: as above; type: cell-based; conditions: Bacteroides fragilis, HM709
Procedure: as §2

[9] = tested on: Lactobacillus casei ATCC 334; assay: as above; type: cell-based; conditions: Lacticaseibacillus casei, ATCC334
Procedure: as §2

[10] = tested on: Bifidobacterium breve HM-411; assay: as above; type: cell-based; conditions: Bifidobacterium breve, HM411
Procedure: as §2

[11] = tested on: Bacteroides fragilis HM-710; assay: as above; type: cell-based; conditions: Bacteroides fragilis, HM710
Procedure: as §2

Bacteroides dorei HM-719 = assay: as above; type: cell-based; conditions: Phocaeicola dorei, HM719
Procedure: as §2

Bacteroides dorei HM-717 = assay: as above; type: cell-based; conditions: Phocaeicola dorei, HM717
Procedure: as §2

[12] = tested on: Bifidobacterium longum HM-847; assay: as above; type: cell-based; conditions: Bifidobacterium longum, HM847
Procedure: as §2

[13] = tested on: Lactobacillus reuteri HM-102; assay: as above; type: cell-based; conditions: Limosilactobacillus reuteri, HM102
Procedure: as §2

C. difficile NR-49277 [14] = assay: Toxin A and B production inhibition, ELISA; type: cell-based, Clostridium difficile; conditions: C. difficile NR-49277, ¼×MIC and ½×MIC
Procedure: (§3) To investigate DIHQs toxin production inhibitory activity, toxin A and toxin B levels were measured as described previously. […] An aliquot from each tube was diluted and plated on BHIS agar plates and incubated anaerobically at 37° C. for 24 hours to detect the bacterial count. The total concentration of C. difficile toxin A and B was measured in the supernatant of each tube using enzyme linked immunosorbent assay (ELISA) kit (tgc BIOMICS, Dunwoody, GA) following the manufacturer's instructions. The (OD450-OD620) values, corresponding to the toxin concentration, were measured for DIHQ and control drugs.

[15] = tested on: C. difficile ATCC BAA-1870; assay: Toxin A and B production inhibition, ELISA; type: cell-based, Clostridium difficile; conditions: C. difficile ATCC BAA-1870, ¼×MIC and ½×MIC
Procedure: as §3

C. difficile ATCC 43255 [16] = assay: Toxin A and B production inhibition, ELISA; type: cell-based, Clostridium difficile; conditions: C. difficile ATCC 43255, ¼×MIC and ½×MIC
Procedure: as §3

C. difficile NR-49277 [17] = assay: Time kill kinetics assay; type: cell-based, Clostridium difficile; conditions: C. difficile NR-49277, 5×MIC, 24 hours
Procedure: (§4) Time kill kinetics assay. In order to examine the killing kinetics of DIHQ, a time kill kinetics assay was performed against Clostridium difficile ATCC BAA 1870 and C. difficile NR-49277 as described previously. […] Aliquots were collected from each treatment after 0, 4, 6, 8, 12, and 24 hours of incubation at 37° C. and subsequently serially diluted and plated for viable CFU/mL determination.

[18] = tested on: C. difficile ATCC BAA-1870; assay: Time kill kinetics assay; type: cell-based, Clostridium difficile; conditions: C. difficile ATCC BAA-1870, 5×MIC, 24 hours
Procedure: as §4

C. difficile I6 = assay: MIC and MBC, broth microdilution; type: cell-based, Clostridium difficile; conditions: Clostridioides difficile, I6
Summary of the method: (§5)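 MBC defined as the lowest concentration reducing growth by 99.9%, judged by subculturing no-growth wells from the microdilution plate onto BHIS agar; the MIC came from the broth dilution series itself.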

C. difficile P6 = assay: MIC and MBC, broth microdilution; type: cell-based, Clostridium difficile; conditions: Clostridioides difficile, P6
Summary of the method: as §5

Structure (SMILES): CN[C@H](CC(C)C)C(=O)N[C@H]1C(=O)N[C@@H](CC(N)=O)C(=O)N[C@H]2C(=O)N[C@H]3C(=O)N[C@H](C(=O)N[C@H](C(=O)O)c4cc(O)cc(O)c4-c4cc3ccc4O)[C@H](O)c3ccc(c(Cl)c3)Oc3cc2cc(c3O[C@@H]2O[C@H](CO)[C@@H](O)[C@H](O)[C@H]2O[C@H]2C[C@](C)(N)[C@H](O)[C@H](C)O2)Oc2ccc(cc2Cl)[C@H]1O [Vancomycin, vancomycin]
- MIC of vancomycin combined with DIHQ ([1]; C. difficile ATCC BAA-1870): 0.125 µg/mL
- MIC ([1]; Clostridioides difficile, ATCCBAA1870, read-out: MIC alone): 1 µg/mL
- MIC of vancomycin combined with DIHQ (C. difficile I9; C. difficile I9): 0.125 µg/mL
- MIC (C. difficile I9; Clostridioides difficile, I9, read-out: MIC alone): 1 µg/mL
- MIC of vancomycin combined with DIHQ (C. difficile ATCC 43255 [2]; C. difficile ATCC 43255): 0.125 µg/mL
- MIC (C. difficile ATCC 43255 [2]; Clostridioides difficile, ATCC43255, read-out: MIC alone): 1 µg/mL
- MIC [3]: ≤ 1 µg/mL
- MIC [4]: 128 µg/mL (≈ 88.3 µM)
- MIC [5]: ≤ 1 µg/mL
- MIC [6]: ≤ 1 µg/mL
- MIC (Bacteroides dorei HM-718): 128 µg/mL (≈ 88.3 µM)
- MIC [7]: 128 µg/mL (≈ 88.3 µM)
- MIC [8]: 64 µg/mL (≈ 44.2 µM)
- MIC [9]: > 128 µg/mL
- MIC [10]: ≤ 1 µg/mL
- MIC [11]: 64 µg/mL (≈ 44.2 µM)
- MIC (Bacteroides dorei HM-719): 64 µg/mL (≈ 44.2 µM)
- MIC (Bacteroides dorei HM-717): 128 µg/mL (≈ 88.3 µM)
- MIC [12]: ≤ 1 µg/mL
- MIC [13]: > 128 µg/mL
- toxin inhibition (in words) (C. difficile NR-49277 [14]): No toxin inhibition
- toxin inhibition (in words) [15]: No toxin inhibition
- toxin inhibition (in words) (C. difficile ATCC 43255 [16]): No toxin inhibition
- reduction of bacterial burden within 24 hours (C. difficile NR-49277 [17]): 1.22 log10 CFU/mL
- reduction of bacterial burden within 24 hours [18]: 1.7 log10 CFU/mL
- MBC (C. difficile I6): 0.5 µg/mL (≈ 0.345 µM)
- MIC (C. difficile I6): 0.5 µg/mL (≈ 0.345 µM)
- MBC (C. difficile P6): 1 µg/mL (≈ 0.69 µM)
- MIC (C. difficile P6): 1 µg/mL (≈ 0.69 µM)
